Measurements as given in patent publication US20010041177A1, “Methods for detecting inflammation and inflammatory conditions” (priority 2000, published 2001).

How the values were obtained:
[1] = system: CD163 expression on monocytes; assay: Monocytes cultured with LPS, DEX or IL-10, surface CD163 by immunofluorescence; assay type: cell-based, human; details: monocytes cultured with the agent alone
Description: In addition to testing the effects of cytokines in combination with glucocorticoids on levels of CD163, studies were performed to examine the effects of glucocorticoids in combination with lipopolysaccharide (LPS). […] However, when monocytes were cultured for 48 hours with DEX combined with LPS, their was a synergistic increase in CD163 expression, where the effect of DEX alone was increased by more than 2-fold when LPS treatment was added.

[2] = system: monocyte CD163 expression; assay: CD163 expression on monocytes of PBMCs cultured with mediators, staining and flow cytometric analysis; assay type: cell-based, human; details: for increase of monocyte CD163 expression: PBMCs treated 24 hours, DEX 200 nM; for effect of cytokine alone on monocyte CD163 expression: at the concentrations tested
Description: To assess whether different cytokines could influence CD163 expression, freshly isolated PBMCs were cultured for 24 hours in the presence of various cytokines, 200 nM DEX (as a positive control for CD163 upregulation), or control media. The cells were then subjected to staining and flow cytometric analysis.
For cytokine treatment studies, isolated PBMCs were suspended in hepes buffered RPMI 1640/0.05% gentamicin/10% FBS at a concentration of 2.0×10^6 to 2.5×10^6 cells/ml and cultured in 96 well plates at 37° C. and 5% CO2 in the presence of various mediators (Table 1). Mononuclear cells were stained for flow cytometric analysis after 24 hours in culture unless otherwise indicated. This enhanced cell recovery because monocytes, which initially adhere to plastic vessels, transiently detach from culture wells at 24-48 hours.
All staining procedures were performed at 4 C. Briefly, cultured PBMCs were incubated with normal human IgG (6 mg/ml) to block Fc receptor-specific binding of mAbs and 30 μg/ml of the isotype control mAb P3 or a saturating amount of mAb MAC2-48 (20 μg/ml) for one hour. Cells were then washed and stained for one hour with 17.5 μg/ml FITC labeled goat F(ab=)2 anti-mouse Ig. The cells were again washed and fixed with 1% methanol free formalin.
Cell fluorescence of monocytes gated using forward and side scatter was analyzed using a Becton Dickenson FACScan (Franklin Lakes, N.J.). Mean fluorescence intensity (MFI) was calculated by subtracting the MFI of the P3 stained mononuclear cells from the MFI of the corresponding Mac2-48 stained cells.

[3] = system: CD163 mRNA; assay: Northern blots of CD163 mRNA in treated monocytes; assay type: cell-based, human; details: monocytes treated 8 hours; 5 ng/ml IL-10 or 10^-8 M FP
Description: Monocytes were treated for 8 hours with either IL-10, the glucocorticoid FP or control media.
Human monocytes were isolated and cultured overnight as described for western blots. Monocytes were then stimulated for 8 hours with 5 ng/ml IL-10 (R&D Systems) or 10^-8 M FP. Total RNA was isolated from IL-10 stimulated, glucocorticoid stimulated and control monocytes as described by Dreier, et al. (Dreier, J. et al. 1998. DNA Cell Biol. 17:321-323). 10 μg of total RNA per sample were electrophoretically separated in a 1% agarose, 2% formaldehyde gel and transferred onto a Hybond N^+nylon membrane (Amersham Inc., Arlington Heights, Ill.) in 20x saline-sodium citrate (SSC) using an LKB 2016 VacuGene blotting apparatus. Antisense RNA probes for northern hybridization were generated from linearized DNA templates using a digoxigenin RNA labeling kit (Boehringer Mannheim, Mannheim, Germany) and T7 RNA polymerase (New England Biolabs, Schwalbach, Germany) as described by the manufacturer. Prehybridization was performed at 68° C. for 1 hr in a high SDS hybridization buffer (7% SDS, 5x SSC, 50% formamide, 50 mM sodium phosphate, 2% casein, 0.1% N-lauroylsarcosine, pH 7.0). Subsequently the heat-denatured probes (10 minutes at 95° C.) were added to the prehybridization solution (100 ng/ml) and hybridized at 68° C. for 16 hours. […]

[4] = system: monocyte surface CD163; details: Droste et al. 1999; blocked by protease inhibitors; cited from earlier work
[5] = system: monocyte surface CD163; assay: Shedding of monocyte surface CD163 in vitro; assay type: cell-based, human; details: cells pretreated with glucocorticoids plus LPS
Description: Therefore, like PMA, LPS is capable of inducing CD163 shedding. LPS-induced shedding occurred even with monocytes that had been cultured for 48 hours in DEX and thus had 5- to 10-fold higher levels of surface CD163 than freshly isolated monocytes. […] This LPS-conferred resistance to subsequent LPS-induced shedding of CD163 is similar to reported endotoxin pre-conditioning for resistance to subsequent inflammatory insults.

[6] = system: CD163 expression on monocytes; details: purified monocytes, 2 days; cited from earlier work

Molecule: C[C@@H]1C[C@H]2[C@@H]3CCC4=CC(=O)C=C[C@]4(C)[C@@]3(F)[C@@H](O)C[C@]2(C)[C@@]1(O)C(=O)CO [DEX, reference compound]
- surface CD163 on monocytes, single agent [1]: increased expression of CD163
- increase of monocyte CD163 expression ([2]; p<0.01): ~7 fold

Molecule: CCC(=O)O[C@]1(C(=O)SCF)[C@H](C)C[C@H]2[C@@H]3C[C@H](F)C4=CC(=O)C=C[C@]4(C)[C@@]3(F)[C@@H](O)C[C@@]21C [FP, reference compound]
- CD163 mRNA levels [3]: increased from undetectable to strong bands

Molecule: CCCCCCCCCCCCCC(=O)O[C@@H]1[C@@H](C)[C@@]2(O)[C@@H](C=C(CO)C[C@]3(O)C(=O)C(C)=C[C@@H]23)[C@@H]2C(C)(C)[C@]12OC(C)=O [PMA]
- shedding of surface CD163 from monocytes in culture [4]: induce rapid shedding of surface CD163
- shedding of surface CD163 on subsequent treatment [5]: remained sensitive to PMA-induced shedding

Molecule: GM-CSF: granulocyte-macrophage colony stimulating factor
- effect of cytokine alone on CD163 expression [6]: neither GM-CSF nor IL-4 alone had any effect
- effect of cytokine plus DEX on CD163 expression [6]: synergistic effect
- effect of cytokine plus DEX on CD163 expression over DEX treatment alone ([2]; PBMCs 24 hours): does not enhance CD163 expression over DEX treatment alone

Molecule: IL-13: interleukin-13, a cytokine
- effect of cytokine alone on monocyte CD163 expression ([2]; PBMCs 24 hours): did not upregulate CD163 expression

B1: IL-10: Interleukin-10 (originally known as cytokine synthesis inhibitory factor), a cytokine (protein, UniProt P22301 19-178, looked up)
Interleukin-10: SPGQGTQSENSCTHFPGNLPNMLRDLRDAFSRVKTFFQMKDQLDNLLLKESLLEDFKGYLGCQALSEMIQFYLEEVMPQAENQDPDIKAHVNSLGENLKTLRLRLRRCHRFLPCENKSKAVEQVKNAFNKLQEKGIYKAMSEFDIFINYIEAYMTMKIRN
- CD163 mRNA levels [3]: increased from undetectable to strong bands
- surface CD163 on monocytes, single agent [1]: increased expression of CD163
- increase of CD163 expression compared to control ([2]; PBMCs 24 hours, 10 and 100 ng/ml IL-10, p<0.01): approximately 3.5 fold
- increase of monocyte CD163 expression ([2]; p<0.01): approximately 4 fold

B2: IL-4: interleukin-4, a cytokine (protein, UniProt P05112 25-153, looked up)
Interleukin-4: HKCDITLQEIIKTLNSLTEQKTLCTELTVTDIFAASKNTTEKETFCRAATVLRQFYSHHEKDTRCLGATAQQFHRHKQLIRFLKRLDRNLWGLAGLNSCPVKEANQSTLENFLERLKTIMREKYSKCSS
- effect of cytokine alone on CD163 expression [6]: neither GM-CSF nor IL-4 alone had any effect
- effect of cytokine plus DEX on CD163 expression [6]: synergistic effect
- effect of cytokine plus DEX on CD163 expression over DEX treatment alone ([2]; PBMCs 24 hours): does not enhance CD163 expression over DEX treatment alone
- effect of cytokine alone on monocyte CD163 expression ([2]; PBMCs 24 hours): did not upregulate CD163 expression
